Reference: US20110251379A1, “COMPOUNDS USEFUL FOR TREATING NEURODEGENERATIVE DISORDERS” (Satori Pharmaceuticals, Inc., priority 2010, published 2011)
Like-named read-outs stand apart in the source and are kept apart here.

Key:
Format in all cases: cell-based
[1] = test system: Aβ-40; experiment: MSD Human (6E10) Ab 3-PLEX elisa, conditioned media of 2B7 cells: Aβ-40; settings: Homo sapiens; for IC50: Aβ-40 (superscript b); for inhibition at 100 µM: Aβ-40, 100 μM; for inhibition at 20 µM: Aβ-40, 20 μM
In short: (§1)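 Each Aβ peptide was measured by MSD 6E10 3-plex electrochemiluminescence against its own seven-point standard curve. Samples were conditioned media from 2B7 cells exposed to compound for 5 hours at 37° C with 1% DMSO. Percent-vehicle values were fitted to a 4-parameter curve to give IC50.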

[2] = test system: Aβ-42; experiment: MSD Human (6E10) Ab 3-PLEX elisa, conditioned media of 2B7 cells: Aβ-42; settings: Homo sapiens; for IC50: Aβ-42 (superscript c); for inhibition at 20 µM: Aβ-42, 20 μM
In short: as §1

[3] = test system: Aβ-38; experiment: MSD Human (6E10) Ab 3-PLEX elisa, conditioned media of 2B7 cells: Aβ-38; settings: Homo sapiens; for IC50: Aβ-38 (superscript a); for inhibition at 20 µM: Aβ-38, 20 μM
In short: as §1

Row | SMILES | IC50 ([1]; read-out: IC50 range) [µM] | IC50 ([2]; read-out: IC50 range) [µM] | IC50 ([3]; read-out: IC50 range) [µM] | IC50 ([1]; read-out: 50% reduction value) [µM] | IC50 ([3]; read-out: 50% reduction value) [µM] | inhibition at 20 µM [1] [%] | IC50 ([2]; read-out: 50% reduction value) [µM] | further results
1 | C[C@@H]1CC(CN2CCC[C@@H]2C(=O)O)OC2[C@H]1[C@@]1(C)CC[C@@]34C[C@@]35CC[C@H](O[C@H]3CN(C(=O)CC6CC6)CCO3)C(C)(C)[C@@H]5CCC4[C@]1(C)[C@H]2O (stereo partly shown) | > 10 | > 10 | > 10 | – | – | – | – | –
2 | C[C@@H]1CC(CN(C)CC(=O)O)OC2[C@H]1[C@@]1(C)CC[C@@]34C[C@@]35CC[C@H](O[C@H]3CN(C(=O)CC6CC6)CCO3)C(C)(C)[C@@H]5CCC4[C@]1(C)[C@H]2O (stereo partly shown) | > 10 | > 10 | > 10 | – | – | – | – | –
3 | C[C@@H]1CC(COC(N)=O)OC2[C@H]1[C@@]1(C)CC[C@@]34C[C@@]35CC[C@H](O[C@H]3CN(C(=O)CC6CC6)CCO3)C(C)(C)[C@@H]5CCC4[C@]1(C)[C@H]2O (stereo partly shown) | > 10 | 1 to 10 | < 1 | – | – | – | – | –
4 | C[C@@H]1CC(COC(=O)N2CCC2)OC2[C@H]1[C@@]1(C)CC[C@@]34C[C@@]35CC[C@H](O[C@H]3CN(C(=O)CC6CC6)CCO3)C(C)(C)[C@@H]5CCC4[C@]1(C)[C@H]2O (stereo partly shown) | 1 to 10 | 1 to 10 | < 1 | – | – | – | – | –
5 | COC(=O)NCCC1C[C@@H](C)C2C(O1)[C@H](O)[C@@]1(C)[C@@H]3CC[C@H]4C(C)(C)[C@@H](OC5CN(C(=O)CC6CC6)CCO5)CC[C@@]45C[C@@]35CC[C@]21C (stereo partly shown) | – | 1 to 10 | 1 to 10 | – | – | – | – | inhibition at 100 µM [1]: 25 to 75%
6 | C[C@@H]1CC(CC(=O)O)OC2[C@H]1[C@@]1(C)CC[C@@]34C[C@@]35CC[C@H](O[C@H]3CN(C(=O)CC6CC6)CCO3)C(C)(C)[C@@H]5CCC4[C@]1(C)[C@H]2O (stereo partly shown) | > 10 | 1 to 10 | > 10 | – | – | – | – | –
7 | C[C@@H]1CC(CCC(N)=O)OC2C1[C@@]1(C)CC[C@@]34C[C@@]35CC[C@H](OC3CN(C(=O)CC6CC6)CCO3)C(C)(C)[C@@H]5CC[C@H]4[C@]1(C)[C@H]2O (stereo partly shown) | > 10 | 1 to 10 | 1 to 10 | – | – | – | – | –
8 | COC(=O)OCC1C[C@@H](C)[C@H]2C(O1)[C@H](O)[C@@]1(C)C3CC[C@H]4C(C)(C)[C@@H](OC5CN(C(=O)CC6CC6)CCO5)CC[C@@]45C[C@@]35CC[C@]21C (stereo partly shown) | – | – | 1 to 10 | – | – | – | – | inhibition at 100 µM [1]: 25 to 75%; inhibition at 100 µM ([2]; Aβ-42, 100 μM): 25 to 75%
9 | C[C@@H]1CC(C(=O)O)OC2[C@H]1[C@@]1(C)CC[C@@]34C[C@@]35CC[C@H](OC3CN(C(=O)CC6CC6)CCO3)C(C)(C)[C@@H]5CCC4[C@]1(C)[C@H]2O (stereo partly shown) | > 10 | 1 to 10 | > 10 | – | – | – | – | –
10 | C[C@@H]1CC(COC(N)=O)OC2[C@H]1[C@@]1(C)CC[C@@]34C[C@@]35CC[C@H](O)C(C)(C)[C@@H]5CCC4[C@]1(C)[C@H]2O (stereo partly shown) | – | – | – | > 10 | > 10 | – | – | inhibition at 20 µM [2]: 25 to 75%; inhibition at 20 µM [3]: 25 to 75%
11 | CNC(=O)OCC1C[C@@H](C)[C@H]2C(O1)[C@H](O)[C@@]1(C)C3CC[C@H]4C(C)(C)[C@@H](O)CC[C@@]45C[C@@]35CC[C@]21C (stereo partly shown) | – | – | – | – | 1 to 10 | 25 to 75 | 1 to 10 | inhibition at 20 µM [3]: 25 to 75%
12 | C[C@@H]1CC(COC(=O)N(C)C)OC2[C@H]1[C@@]1(C)CC[C@@]34C[C@@]35CC[C@H](O)C(C)(C)[C@@H]5CCC4[C@]1(C)[C@H]2O (stereo partly shown) | – | – | – | > 10 | – | 25 to 75 | – | inhibition at 20 µM [2]: 25 to 75%; inhibition at 4 µM ([3]; Aβ-38, 4 μM): 25 to 75%
13 | C[C@@H]1CC(C(=O)O)OC2C1[C@@]1(C)CC[C@@]34C[C@@]35CC[C@H](OC3CN(C6COC6)CCO3)C(C)(C)[C@@H]5CC[C@H]4[C@]1(C)[C@H]2O (stereo partly shown) | – | – | – | – | – | < 25 | – | inhibition at 20 µM [2]: < 25%; inhibition at 20 µM [3]: < 25%
14 | C[C@@H]1CC(CNC(C(=O)O)C(F)(F)F)OC2[C@H]1[C@@]1(C)CC[C@@]34C[C@@]35CC[C@H](O[C@H]3CN(C6COC6)CCO3)C(C)(C)[C@@H]5CCC4[C@]1(C)[C@H]2O (stereo partly shown) | – | – | – | – | – | 25 to 75 | – | inhibition at 20 µM [2]: 25 to 75%; inhibition at 20 µM [3]: < 25%
15 | CC(=O)OCC1C[C@@H](C)[C@H]2C(O1)[C@H](O)[C@@]1(C)C3CC[C@H]4C(C)(C)[C@@H](O[C@H]5CN(C6COC6)CCO5)CC[C@@]45C[C@@]35CC[C@]21C (stereo partly shown) | – | – | – | – | – | < 25 | – | inhibition at 20 µM [2]: < 25%; inhibition at 20 µM [3]: 25 to 75%
16 | C[C@@H]1CC(COC(=O)C2CCOCC2)OC2[C@H]1[C@@]1(C)CC[C@@]34C[C@@]35CC[C@H](O[C@H]3CN(C6COC6)CCO3)C(C)(C)[C@@H]5CCC4[C@]1(C)[C@H]2O (stereo partly shown) | – | – | – | – | – | 25 to 75 | – | inhibition at 20 µM [2]: 25 to 75%; inhibition at 20 µM [3]: 25 to 75%
17 | C[C@@H]1C[C@](C)(CO)OC2[C@H]1[C@@]1(C)CC[C@@]34C[C@@]35CC[C@H](O)C(C)(C)[C@@H]5CCC4[C@]1(C)[C@H]2O (stereo partly shown) | – | – | – | – | – | < 25 | – | inhibition at 20 µM [2]: < 25%; inhibition at 20 µM [3]: 25 to 75%
18 | CC(C)[C@@H](OC(=O)C1CCOCC1)C1C[C@@H](C)[C@H]2C(O1)[C@H](O)[C@@]1(C)[C@@H]3CC[C@H]4C(C)(C)C(O)CC[C@@]45C[C@@]35CC[C@]21C (stereo partly shown) | 1 to 10 | 1 to 10 | > 10 | – | – | – | – | –
19 | CCOCC1C[C@@H](C)[C@H]2C(O1)[C@H](O)[C@@]1(C)C3CC[C@H]4C(C)(C)C(O[C@H]5CN(C6COC6)CCO5)CC[C@@]45C[C@@]35CC[C@]21C (stereo partly shown) | – | – | 1 to 10 | – | – | < 75 | – | inhibition at 20 µM [2]: < 25%; inhibition at 20 µM [3]: 25 to 75%
20 | CC(=O)N1CCN(C(=O)OC2CC[C@]34C[C@]35CC[C@]3(C)[C@@H]6C(OC([C@H](OC(=O)N7CCC7)C(C)C)C[C@H]6C)[C@H](O)[C@@]3(C)C5CC[C@H]4C2(C)C)CC1 (stereo partly shown) | 1 to 10 | < 1 | < 1 | 1 to 10 | < 1 | – | < 1 | –
21 | CCNC(=O)O[C@H](C(C)C)C1C[C@@H](C)[C@H]2C(O1)[C@H](O)[C@@]1(C)C3CC[C@H]4C(C)(C)C(OC(=O)N5CCOCC5)CC[C@@]45C[C@@]35CC[C@]21C (stereo partly shown) | – | < 1 | – | – | < 1 | 25 to 75 | – | –
22 | CCNC(=O)O[C@H](C(C)C)C1C[C@@H](C)[C@H]2C(O1)[C@H](O)[C@@]1(C)C3CC[C@H]4C(C)(C)C(OC(N)=O)CC[C@@]45C[C@@]35CC[C@]21C (stereo partly shown) | – | – | – | 1 to 10 | < 1 | – | < 1 | –
23 | CCNC(=O)O[C@H](C(C)C)C1C[C@@H](C)[C@H]2C(O1)[C@H](O)[C@@]1(C)C3CC[C@H]4C(C)(C)C(OC(=O)NC5CNC5)CC[C@@]45C[C@@]35CC[C@]21C (stereo partly shown) | > 10 | < 1 | < 1 | 1 to 10 | < 1 | – | < 1 | –
24 | CNC(=O)OC1CC[C@]23C[C@]24CC[C@]2(C)[C@@H]5C(OC([C@H](OC(=O)N6CCC6)C(C)C)C[C@H]5C)[C@H](O)[C@@]2(C)C4CC[C@H]3C1(C)C (stereo partly shown) | 1 to 10 | < 1 | < 1 | 1 to 10 | < 1 | – | < 1 | –
25 | CC(C)[C@@H](OC(=O)N1CCC1)C1C[C@@H](C)[C@H]2C(O1)[C@H](O)[C@@]1(C)C3CC[C@H]4C(C)(C)C(OC(=O)N5CCn6c(nnc6C(F)(F)F)C5)CC[C@@]45C[C@@]35CC[C@]21C (stereo partly shown) | – | – | – | – | < 1 | 25 to 75 | < 1 | –
26 | CC(C)[C@@H](OC(=O)N1CCC1)C1C[C@@H](C)[C@H]2C(O1)[C@H](O)[C@@]1(C)C3CC[C@H]4C(C)(C)C(OC(=O)N5CC6(COC6)C5)CC[C@@]45C[C@@]35CC[C@]21C (stereo partly shown) | – | – | – | > 10 | < 1 | – | < 1 | –
27 | CC(C)[C@@H](OC(=O)N1CCC1)C1C[C@@H](C)[C@H]2C(O1)[C@H](O)[C@@]1(C)C3CC[C@H]4C(C)(C)C(OC(=O)NC5COC5)CC[C@@]45C[C@@]35CC[C@]21C (stereo partly shown) | – | – | – | > 10 | < 1 | – | < 1 | –
28 | CC(C)[C@@H](OC(=O)N1CCC1)C1C[C@@H](C)[C@H]2C(O1)[C@H](O)[C@@]1(C)C3CC[C@H]4C(C)(C)C(OC(=O)N5CCn6cnnc6C5)CC[C@@]45C[C@@]35CC[C@]21C (stereo partly shown) | – | – | – | > 10 | < 1 | – | < 1 | –
29 | CC(C)[C@@H](OC(=O)N1CCC1)C1C[C@@H](C)[C@H]2C(O1)[C@H](O)[C@@]1(C)C3CC[C@H]4C(C)(C)C(OC(=O)N5CCn6ccnc6C5)CC[C@@]45C[C@@]35CC[C@]21C (stereo partly shown) | – | – | – | > 10 | < 1 | – | < 1 | –
